Data reported in patent US10344019B2 (priority 2010, dated 2019).
Where two headings read alike, the source gives them in different places.

Tests used:
Format in all cases: cell-based
[1] = test system: HCV 1a RLuc cells (dicistronic genotype 1a H77 replicon, RLuc reporter); assay: microbe, parasite or virus in culture; settings: read-out: 1a
Outline: (§1)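 Renilla luciferase HCV replicon cells: dicistronic 1b Con1, 1a H77 or 2a JFH-1 replicons, or a JFH-1 chimera carrying J6 NS5A (M31 present). Compound in DMSO serial dilutions, 72 h incubation, then lysis and luciferase read. EC50 by non-linear regression.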

[2] = test system: HCV 1b RLuc cells (dicistronic genotype 1b Con1 replicon, RLuc reporter); assay: microbe, parasite or virus in culture
Outline: as §1

[3] = test system: HCV 2a JFH-1 Rluc cells (dicistronic genotype 2a JFH-1 replicon, RLuc reporter); assay: microbe, parasite or virus in culture; settings: read-out: 2a JFH
Outline: as §1

[4] = test system: HCV 2b Rluc cells (NS5A chimeric genotype 2a JFH-1 replicon with genotype 2b MD2b-1 NS5A gene, M31 present); assay: microbe, parasite or virus in culture; settings: Hepatitis C virus, read-out: 2b
Outline: (§2)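 Replicon cells stably carrying the listed RLuc-encoding dicistronic replicons were seeded and treated with DMSO serial dilutions of compound (10 mM stocks) diluted into culture medium. After 72 h, cells were lysed and Renilla luciferase activity measured. EC50 was derived by non-linear regression.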

[5] = test system: HCV 3a RLuc cells (NS5A chimeric genotype 1b Con1 replicon with consensus genotype 3a NS5A gene); assay: microbe, parasite or virus in culture
Outline: as §2

[6] = test system: HCV 4a Rluc cells (NS5A chimeric genotype 1b Con1 replicon with genotype 4a NS5A gene); assay: microbe, parasite or virus in culture; settings: Hepatitis C virus, read-out: 4a
Outline: as §2

[7] = test system: HCV 2a Rluc cells (NS5A chimeric genotype 2a JFH-1 replicon with genotype 2a J6 strain NS5A gene, M31 present); assay: HCV replicon reporter assay, genotype 2a J6 (M31 present); settings: Hepatitis C virus, read-out: 2a J6
Outline: as §1

[8] = Hepatitis C virus, genotype 1a replicon
[9] = Hepatitis C virus, read-out: 1b (nM)
[10] = Hepatitis C virus, genotype 2a JFH-1 replicon
[11] = Hepatitis C virus, read-out: 3a, genotype 3a replicon
[12] = Hepatitis C virus, genotype 1a H77 RLuc replicon
[13] = Hepatitis C virus, genotype 2a JFH-1 RLuc replicon
[14] = Hepatitis C virus, read-out: 3a, genotype 3a NS5A chimeric replicon

Structure (SMILES)	EC50 [1, 8]	EC50 [2, 9]	EC50 [3, 10]	EC50 [4]	EC50 [5, 11]	EC50 [6]	EC50 [7]	further results
COC(=O)N[C@H](C(=O)N1CCC[C@H]1c1nc2ccc3cc(-c4ccc5c(ccc6nc([C@@H]7[C@H]8CC[C@H](C8)N7C(=O)[C@H](NC(=O)C7CC7)c7ccccc7)[nH]c65)c4)ccc3c2[nH]1)C(C)C [Example 455]	0.001 to 0.999 nM	0.029 nM	0.001 to 0.999 nM	0.001 to 0.999 nM	0.001 to 0.99 nM	0.001 to 0.99 nM	0.001 to 0.999 nM	–
COC(=O)N[C@H](C(=O)N1CCC[C@H]1c1nc2ccc3cc(-c4ccc5c(ccc6nc([C@@H]7[C@@H]8CC[C@@H](C8)N7C(=O)[C@H](NC(=O)OC)c7ccccc7)[nH]c65)c4)ccc3c2[nH]1)C(C)C [Example 429]	0.001 to 0.999 nM	0.033 nM	0.001 to 0.999 nM	1 to 44 nM	0.001 to 0.99 nM	0.001 to 0.99 nM	1 to 44 nM	–
COC(=O)N[C@H](C(=O)N1CCC[C@H]1c1nc2ccc3cc(-c4ccc(-c5cnc([C@@H]6CCCN6C(=O)[C@H](NC(=O)OC)c6ccccc6)[nH]5)cc4C#Cc4ccccc4)ccc3c2[nH]1)C(C)C [Example 439]	0.001 to 0.999 nM	0.004 nM	0.001 to 0.999 nM	> 44 nM	0.001 to 0.99 nM	0.001 to 0.99 nM	1 to 44 nM	–
COC[C@H]1C[C@@H](c2nc3ccc4cc(-c5ccc(-c6cnc([C@@H]7CCCN7C(=O)[C@H](NC(=O)OC)c7ccccc7)[nH]6)cc5OCC(F)(F)F)ccc4c3[nH]2)N(C(=O)[C@@H](NC(=O)OC)C(C)C)C1 [Example 474]	0.001 to 0.999 nM	0.025 nM	0.001 to 0.999 nM	1 to 44 nM	0.001 to 0.99 nM	0.001 to 0.99 nM	1 to 44 nM	–
COC(=O)N[C@H](C(=O)N1CCC[C@H]1c1ncc(-c2ccc3c4ccc(-c5cnc([C@@H]6CCCN6C(=O)[C@@H](NC(=O)OC)C(C)C)[nH]5)cc4c4ccccc4c3c2)[nH]1)C(C)C [Example 22]	–	–	–	> 44 nM	–	0.001 to 0.99 nM	> 44 nM	EC50 ([1]; Hepatitis C virus, 72 h, Table 1, genotype 1a H77 replicon, 72 hours): 0.001 to 0.999 nM; EC50 ([2]; Hepatitis C virus, 72 h, read-out: 1b (nM)): 0.005 nM; EC50 ([3]; Hepatitis C virus, 72 h, Table 1, genotype 2a JFH-1 replicon, 72 hours): 0.001 to 0.999 nM; EC50 ([5]; Hepatitis C virus, read-out: 3a, Table 1, genotype 3a NS5A chimeric replicon): 0.001 to 0.99 nM
COC[C@H]1C[C@@H](c2nc3ccc4cc(-c5ccc(-c6cnc([C@@H]7CCCN7C(=O)[C@@H](NC(=O)OC)C(C)C)[nH]6)cc5)ccc4c3[nH]2)N(C(=O)[C@@H](NC(=O)OC)C(C)C)C1 [Example 417]	0.001 to 0.999 nM	0.024 nM	0.001 to 0.999 nM	1 to 44 nM	0.001 to 0.99 nM	0.001 to 0.99 nM	1 to 44 nM	–
COC(=O)N[C@H](C(=O)N1CCC[C@H]1c1ncc(-c2ccc3c(c2)COc2cc4c(ccc5nc([C@@H]6C[C@H]7C[C@H]7N6C(=O)[C@@H](NC(=O)OC)C(C)C)[nH]c54)cc2-3)[nH]1)C(C)C [Example 518]	–	0.01 nM	–	0.001 to 0.999 nM	–	0.001 to 0.99 nM	1 to 44 nM	EC50 [1, 12]: 0.001 to 0.999 nM; EC50 [3, 13]: 0.001 to 0.999 nM; EC50 [5, 14]: 0.001 to 0.99 nM
COC(=O)N[C@H](C(=O)N1CCC[C@H]1c1nc(Br)c(-c2cc3c4c(c2)OCc2cc(-c5[nH]c([C@@H]6CCCN6C(=O)[C@@H](NC(=O)OC)C(C)C)nc5Br)cc(c2-4)OC3)[nH]1)C(C)C [Example 473]	0.001 to 0.999 nM	0.015 nM	0.001 to 0.999 nM	1 to 44 nM	0.001 to 0.99 nM	0.001 to 0.99 nM	1 to 44 nM	–
COC(=O)NC(C(=O)N1CCC[C@H]1c1ncc(-c2cc3c4c(c2)OCc2cc(-c5[nH]c([C@@H]6CCCN6C(=O)C(NC(=O)OC)c6cccnc6)nc5Cl)cc(c2-4)OC3)[nH]1)c1cccnc1 (some centres unmarked) [Example 420]	1 to 44 nM	4.66 nM	0.001 to 0.999 nM	1 to 44 nM	0.001 to 0.99 nM	1 to 4.99 nM	1 to 44 nM	–
COC(=O)N[C@H](C(=O)N1[C@@H]2CC[C@@H](C2)[C@H]1c1nc2ccc3cc(-c4ccc5c(ccc6nc([C@@H]7CCCN7C(=O)[C@H](NC(=O)OC)c7ccccc7)[nH]c65)c4)ccc3c2[nH]1)C(C)C [Example 314]	0.001 to 0.999 nM	0.026 nM	0.001 to 0.999 nM	0.001 to 0.999 nM	0.001 to 0.99 nM	0.001 to 0.99 nM	0.001 to 0.999 nM	–
COC(=O)N[C@H](C(=O)N1[C@@H]2C[C@@H]2C[C@H]1c1ncc(-c2cc3c4c(c2)OCc2cc(-c5cnc([C@@H]6C[C@H]7C[C@H]7N6C(=O)[C@H](NC(=O)OC)c6ccccc6)[nH]5)cc(c2-4)OC3)[nH]1)C(C)C [Example 501]	–	0.021 nM	–	1 to 44 nM	–	0.001 to 0.99 nM	> 44 nM	EC50 [1, 12]: 0.001 to 0.999 nM; EC50 [3, 13]: 0.001 to 0.999 nM; EC50 [5, 14]: 0.001 to 0.99 nM
COC(=O)N[C@H](C(=O)N1CCC[C@H]1c1nc2ccc3cc(-c4ccc5c(ccc6nc([C@@H]7CC8(CN7C(=O)[C@@H](NC(=O)OC)C(C)C)OCCO8)[nH]c65)c4)ccc3c2[nH]1)C(C)C [Example 363]	0.001 to 0.999 nM	0.025 nM	0.001 to 0.999 nM	> 44 nM	1 to 4.99 nM	0.001 to 0.99 nM	1 to 44 nM	–
COC(=O)N[C@H](C(=O)N1CCCC1c1ncc(-c2ccc3c(c2)COc2cc4c(ccc5nc([C@@H]6C[C@@H]7CCC[C@@H]7N6C(=O)[C@@H](NC(=O)OC)C(C)C)[nH]c54)cc2-3)[nH]1)C(C)C (some centres unmarked) [Example 576]	–	0.014 nM	–	0.001 to 0.999 nM	–	0.001 to 0.99 nM	1 to 44 nM	EC50 [1, 12]: 0.001 to 0.999 nM; EC50 [3, 13]: 0.001 to 0.999 nM; EC50 [5, 14]: 0.001 to 0.99 nM
COC(=O)N[C@H](C(=O)N1C[C@@H](C)C[C@H]1c1ncc(-c2cc3c4c(c2)OCc2cc(-c5cnc([C@@H]6C[C@H](C)CN6C(=O)[C@H](NC(=O)C6C(C)(C)C6(C)C)c6ccccc6)[nH]5)cc(c2-4)OC3)[nH]1)C(C)C [Example 577]	–	0.017 nM	–	1 to 44 nM	–	0.001 to 0.99 nM	> 44 nM	EC50 [1, 12]: 0.001 to 0.999 nM; EC50 [3, 13]: 0.001 to 0.999 nM; EC50 [5, 14]: 0.001 to 0.99 nM
CC(C)COC(=O)N[C@@H](C(=O)N1CCC[C@H]1c1ncc(-c2cc3c4c(c2)OCc2cc(-c5cnc([C@@H]6CCCN6C(=O)[C@H](NC(=O)OCC(C)C)c6ccccc6)[nH]5)cc(c2-4)OC3)[nH]1)c1ccccc1 [Example 487]	0.001 to 0.999 nM	0.027 nM	0.001 to 0.999 nM	1 to 44 nM	0.001 to 0.99 nM	0.001 to 0.99 nM	> 44 nM	–
COC(=O)N[C@H](C(=O)N1CCC[C@H]1c1nc2ccc3cc(-c4ccc5cc(-c6cnc([C@@H]7CCCN7C(=O)[C@H](NC(=O)OC)c7ccccc7)[nH]6)ccc5c4)ccc3c2[nH]1)C(C)C [Example 206]	–	0.005 nM	–	> 44 nM	–	0.001 to 0.99 nM	1 to 44 nM	EC50 ([1]; Hepatitis C virus, genotype 1a H77 replicon, RLuc reporter): 0.001 to 0.999 nM; EC50 ([3]; Hepatitis C virus, genotype 2a JFH-1 replicon, RLuc reporter): 0.001 to 0.999 nM; EC50 ([5]; Hepatitis C virus, read-out: 3a, genotype 3a NS5A chimeric 1b Con1 replicon): 0.001 to 0.99 nM
O=C(N[C@@H](C(=O)N1CCC[C@H]1c1ncc(-c2cc3c4c(c2)OCc2cc(-c5cnc([C@@H]6CCCN6C(=O)[C@H](NC(=O)c6ccccn6)c6ccccc6)[nH]5)cc(c2-4)OC3)[nH]1)c1ccccc1)c1ccccn1 [Example 482]	0.001 to 0.999 nM	0.034 nM	0.001 to 0.999 nM	0.001 to 0.999 nM	0.001 to 0.99 nM	0.001 to 0.99 nM	0.001 to 0.999 nM	–
O=C(CC1CC1)N[C@@H](C(=O)N1CCC[C@H]1c1ncc(-c2cc3c4c(c2)OCc2cc(-c5cnc([C@@H]6CCCN6C(=O)[C@H](NC(=O)CC6CC6)c6ccccc6)[nH]5)cc(c2-4)OC3)[nH]1)c1ccccc1 [Example 465]	0.001 to 0.999 nM	0.176 nM	0.001 to 0.999 nM	0.001 to 0.999 nM	0.001 to 0.99 nM	0.001 to 0.99 nM	0.001 to 0.999 nM	–
COC(=O)N[C@H](C(=O)N1CCC[C@H]1c1ncc(-c2ccc3cc(-c4ccc(-c5cnc([C@@H]6CCCN6C(=O)[C@H](NC(=O)OC)c6ccccc6)[nH]5)cc4)ccc3c2)[nH]1)C(C)C [Example 26]	–	–	–	1 to 44 nM	–	0.001 to 0.99 nM	1 to 44 nM	EC50 ([1]; Table 2, genotype 1a H77 replicon, 72 hours): 0.001 to 0.999 nM; EC50 ([2]; read-out: 1b): 0.012 nM; EC50 ([3]; Table 2, genotype 2a JFH-1 replicon, 72 hours): 0.001 to 0.999 nM; EC50 ([5]; read-out: 3a, Table 2, genotype 3a NS5A chimeric replicon): 0.001 to 0.99 nM
COC[C@H]1C[C@@H](c2ncc(-c3ccc(-c4ccc(-c5cnc([C@@H]6C[C@H](SC)CN6C(=O)[C@@H](NC(=O)OC)C(C)C)[nH]5)cc4)cc3)[nH]2)N(C(=O)[C@H](NC(=O)C2CC2)c2ccccc2)C1 [Example 570]	–	0.033 nM	–	0.001 to 0.999 nM	–	0.001 to 0.99 nM	0.001 to 0.999 nM	EC50 [1, 12]: 0.001 to 0.999 nM; EC50 [3, 13]: 0.001 to 0.999 nM; EC50 [5, 14]: 0.001 to 0.99 nM
